This note sets out measurements from PubChem BioAssay AID330 (DTP/NCI, 2004).

This test deals with P388 leukemia ip, CD2F1 mice, survival T/C. The test can be described thus: NCI In Vivo Anticancer Drug Screen. Data for tumor model P388 Leukemia (intraperitoneal) in CD2F1 (CDF1) mice. The conditions noted are these: endpoint: median survival time, higher = longer survival. In short, it runs like this: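 Mice carrying the transplanted tumor received test compound or vehicle. Survival was recorded in each group, and the value is the treated-group measurement divided by that of the vehicle-treated control group.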

The mark [1] stands for this setting: dose: 50.0 mg/kg/injection, schedule: Q01DX009 (ip), vehicle: saline with Tween-80.
The mark [2] stands for this setting: dose: 100.0 mg/kg/injection, schedule: Q01DX009 (ip), vehicle: saline with Tween-80.
The mark [3] stands for this setting: dose: 200.0 mg/kg/injection, schedule: Q01DX009 (ip), vehicle: saline with Tween-80.
Setting [4] is: dose: 50.0 mg/kg/injection, schedule: Q01DX005 (ip), vehicle: saline with Tween-80.
Setting [5] is: dose: 100.0 mg/kg/injection, schedule: Q01DX005 (ip), vehicle: saline with Tween-80.
Where [6] appears, read: dose: 200.0 mg/kg/injection, schedule: Q01DX005 (ip), vehicle: saline with Tween-80.
[7] abbreviates: dose: 50.0 mg/kg/injection, schedule: Q01DX009 (ip), vehicle: Klucel (hydroxypropylcellulose) (HPC).
The mark [8] stands for this setting: dose: 100.0 mg/kg/injection, schedule: Q01DX009 (ip), vehicle: Klucel (hydroxypropylcellulose) (HPC).
The mark [9] stands for this setting: dose: 200.0 mg/kg/injection, schedule: Q01DX009 (ip), vehicle: Klucel (hydroxypropylcellulose) (HPC).
Setting [10] is: dose: 60.0 mg/kg/injection, schedule: Q01DX005 (ip), vehicle: saline with Tween-80.
[11] abbreviates: dose: 120.0 mg/kg/injection, schedule: Q01DX005 (ip), vehicle: saline with Tween-80.
[12] abbreviates: dose: 240.0 mg/kg/injection, schedule: Q01DX005 (ip), vehicle: saline with Tween-80.

“And” between values parts separate entries of the source, which are not always exact repeats. Equal entries are not always repeated. Toxic doses and inconclusive results are not listed.

Regarding `CC1=CCC2C3(C)C=CC(=O)C(C)(C)C3CC3OC(=O)C=C1C32C` (centres undefined), the T/C (dose: 0.75 mg/kg/injection, schedule: Q01DX009 (ip), vehicle: Klucel (hydroxypropylcellulose) (HPC)) is 102 % of control; the T/C (dose: 1.5 mg/kg/injection, schedule: Q01DX009 (ip), vehicle: Klucel (hydroxypropylcellulose) (HPC)) was 98 % of control and 102 % of control; the T/C (dose: 3.0 mg/kg/injection, schedule: Q01DX009 (ip), vehicle: Klucel (hydroxypropylcellulose) (HPC)) was 101 % of control; the T/C (dose: 6.0 mg/kg/injection, schedule: Q01DX009 (ip), vehicle: Klucel (hydroxypropylcellulose) (HPC)) is 97 % of control; the T/C (dose: 12.0 mg/kg/injection, schedule: Q01DX009 (ip), vehicle: Klucel (hydroxypropylcellulose) (HPC)) is 100 % of control and 97 % of control; the T/C (dose: 24.0 mg/kg/injection, schedule: Q01DX009 (ip), vehicle: Klucel (hydroxypropylcellulose) (HPC)) was 100 % of control.

As to `CCCCNC(=O)NS(=O)(=O)c1ccc(N)cc1`, the T/C was 100 % of control under setting [1], 105 % of control under setting [2] and 102 % of control under setting [3].

On to `CCOC(=O)c1c[nH]c2cc3ccccc3cc2c1=O`, for which the T/C (dose: 50.0 mg/kg/injection, schedule: Q01DX009 (ip), vehicle: saline) was 91 % of control; the T/C (dose: 100.0 mg/kg/injection, schedule: Q01DX009 (ip), vehicle: saline) was 107 % of control; the T/C (dose: 200.0 mg/kg/injection, schedule: Q01DX009 (ip), vehicle: saline) was 117 % of control.

As for `Cn1c(-c2ccccc2)c/c(=N\NS(C)(=O)=O)c2cc(S(=O)(=O)O)ccc21`, the T/C reads like this: under setting [1], 96 % of control; under setting [2], 91 % of control; under setting [3], 98 % of control.

Regarding `O=C(O)C(Cc1ccc(O)cc1)c1ccc(C(Cc2ccc(O)cc2)C(=O)O)cc1` (centres undefined), the T/C under setting [4] is 105 % of control, the T/C under setting [5] was 102 % of control and the T/C under setting [6] was 100 % of control.

As to `NC(=O)CC1OC(=O)Cc2cc3c(c(O)c21)C(=O)c1c(O)cccc1C3=O` (centres undefined), the T/C by setting is: (dose: 0.75 mg/kg/injection, schedule: Q01DX009 (ip), vehicle: DMSO) 109 % of control; (dose: 1.5 mg/kg/injection, schedule: Q01DX009 (ip), vehicle: DMSO) 107 % of control; (dose: 3.0 mg/kg/injection, schedule: Q01DX009 (ip), vehicle: DMSO) 107 % of control; (dose: 6.0 mg/kg/injection, schedule: Q01DX009 (ip), vehicle: DMSO) 107 % of control.

On to `N#Cc1ccc(NC(=O)CCCC(=O)Nc2ccc(C#N)c(C#N)c2)cc1C#N`, for which the T/C is 97 % of control under setting [7], 94 % of control under setting [8] and 96 % of control under setting [9].

For the compound `C[C@@]12CCC[C@@H]1OC(=O)C2`, the T/C under setting [4] is 98 % of control.

Consider `CC1(C)OC2OC(COC(=O)c3ccccc3)C(=O)C2O1` (centres undefined), for which the T/C is, setting by setting: (dose: 3.13 mg/kg/injection, schedule: Q01DX009 (ip), vehicle: saline with Tween-80) 95 % of control; (dose: 6.25 mg/kg/injection, schedule: Q01DX009 (ip), vehicle: saline with Tween-80) 93 % of control; (dose: 12.5 mg/kg/injection, schedule: Q01DX009 (ip), vehicle: saline with Tween-80) 89 % of control.

As for `CC1CN=C(c2ccc(NC(=O)c3ccc(C(=O)Nc4ccc(C5=NCC(C)N5)cc4)c(N)c3)cc2)N1` (centres undefined), the T/C was 100 % of control (dose: 0.5 mg/kg/injection, schedule: Q04DX003 (ip), vehicle: saline); 110 % of control (dose: 1.0 mg/kg/injection, schedule: Q04DX003 (ip), vehicle: saline); 120 % of control (dose: 2.0 mg/kg/injection, schedule: Q04DX003 (ip), vehicle: saline); 195 % of control (dose: 2.5 mg/kg/injection, schedule: Q01DX009 (ip), vehicle: saline with Tween-80); 255 % of control (dose: 5.0 mg/kg/injection, schedule: Q01DX009 (ip), vehicle: saline with Tween-80); 170 % of control (dose: 10.0 mg/kg/injection, schedule: Q01DX009 (ip), vehicle: saline with Tween-80). Further, for the setting “dose: 10.0 mg/kg/injection, schedule: Q04DX003 (ip), vehicle: saline with Tween-80”, the T/C was 159 % of control.

In the case of `COC(=O)C(CS)NC(=O)C(Cc1c[nH]c2ccccc12)NC(=O)OC(C)(C)C` (centres undefined), the T/C was 88 % of control (dose: 12.5 mg/kg/injection, schedule: Q01DX009 (ip), vehicle: other); 103 % of control (dose: 25.0 mg/kg/injection, schedule: Q01DX009 (ip), vehicle: other); 100 % of control (dose: 50.0 mg/kg/injection, schedule: Q01DX009 (ip), vehicle: other); 99 % of control (dose: 100.0 mg/kg/injection, schedule: Q01DX009 (ip), vehicle: other); 103 % of control (dose: 200.0 mg/kg/injection, schedule: Q01DX009 (ip), vehicle: other).

On to `CCOC(=O)C(C)(/C=N/NS(=O)(=O)c1ccc(C)cc1)c1ccccc1` (centres undefined), for which the T/C is 106 % of control under setting [7], 98 % of control under setting [8] and 100 % of control under setting [9].

As to `CC1CCC2(NC1)OC1CC3C4CCC5CC(OC6OC(CO)C(OC7OC(CO)C(O)C(OC8OCC(O)C(O)C8O)C7OC7OC(CO)C(O)C(O)C7O)C(O)C6O)CCC5(C)C4CCC3(C)C1C2C` (centres undefined), the T/C (dose: 3.12 mg/kg/injection, schedule: Q04DX003 (ip), vehicle: Klucel (hydroxypropylcellulose) (HPC)) was 102 % of control; the T/C (dose: 6.25 mg/kg/injection, schedule: Q04DX003 (ip), vehicle: Klucel (hydroxypropylcellulose) (HPC)) was 100 % of control; the T/C (dose: 12.5 mg/kg/injection, schedule: Q04DX003 (ip), vehicle: Klucel (hydroxypropylcellulose) (HPC)) is 100 % of control and 91 % of control; the T/C (dose: 50.0 mg/kg/injection, schedule: Q04DX003 (ip), vehicle: Klucel (hydroxypropylcellulose) (HPC)) is 89 % of control and 93 % of control.

Regarding `O=C(CCS(=O)(=O)CCC(=O)C(c1ccccc1)c1ccccc1)C(c1ccccc1)c1ccccc1`, the T/C was 97 % of control (dose: 100.0 mg/kg/injection, schedule: Q04DX003 (ip), vehicle: saline); 94 % of control (dose: 200.0 mg/kg/injection, schedule: Q04DX003 (ip), vehicle: saline); 90 % of control (dose: 400.0 mg/kg/injection, schedule: Q04DX003 (ip), vehicle: saline).

As for `COc1ccc(CN2CCCN(Cc3ccc(OC)cc3)C2c2cc3ccccc3c3ccccc23)cc1`, the T/C is 99 % of control under setting [4], 99 % of control under setting [5] and 101 % of control under setting [6].

`CCCCC(CC)CCC(C)O` (centres undefined): the T/C reads like this: (dose: 50.0 mg/kg/injection, schedule: Q04DX003 (ip), vehicle: saline with Tween-80) 100 % of control; (dose: 100.0 mg/kg/injection, schedule: Q04DX003 (ip), vehicle: saline with Tween-80) 109 % of control.

`CC(=O)NNC(=O)c1ccc2ccccc2n1`: the T/C (dose: 50.0 mg/kg/injection, schedule: Q01DX009 (ip), vehicle: saline sonified) was 100 % of control and the T/C (dose: 100.0 mg/kg/injection, schedule: Q01DX009 (ip), vehicle: saline sonified) was 104 % of control.

In the case of `O=S(=O)(Nc1cccc(F)c1)c1ccc(F)cc1`, the T/C runs as follows: under setting [10], 103 % of control; under setting [11], 99 % of control; under setting [12], 93 % of control.

On to `Cc1cccc(C)c1NC(=O)Nc1cccc(C(F)(F)F)c1`, for which the T/C reads like this: under setting [10], 100 % of control; under setting [11], 100 % of control; under setting [12], 90 % of control.

Turning to `O=C1NC(=O)C2CC3C(CC12)C1C(=O)NC(=O)C31` (centres undefined), the T/C reads like this: under setting [4], 104 % of control; under setting [5], 101 % of control.

Take `C[O+]=c1cccc2sc(-c3ccccc3)ccc1-2`: the T/C reads like this: (dose: 50.0 mg/kg/injection, schedule: Q01DX005 (ip), vehicle: Klucel (hydroxypropylcellulose) (HPC)) 99 % of control; (dose: 100.0 mg/kg/injection, schedule: Q01DX005 (ip), vehicle: Klucel (hydroxypropylcellulose) (HPC)) 108 % of control.

As to `CCCCCC(O)(CCCCC)CCCCC`, the T/C reads like this: (dose: 60.0 mg/kg/injection, schedule: Q01DX005 (ip), vehicle: saline) 101 % of control; (dose: 120.0 mg/kg/injection, schedule: Q01DX005 (ip), vehicle: saline) 101 % of control; (dose: 240.0 mg/kg/injection, schedule: Q01DX005 (ip), vehicle: saline) 92 % of control.

For `COC(=O)c1cn(NS(=O)(=O)c2ccc(OC)cc2)cc1C(=O)OC`, the T/C is 96 % of control under setting [10], 101 % of control under setting [11] and 104 % of control under setting [12].
